Assay results published in US11389456B2, “Compounds and methods for treating oxalate-related diseases” (OxaluRx, Inc., priority 2018, dated 2022).

Molecular target: recombinant full-length human hydroxyacid oxidase 1 (HAO1), the equivalent of hGOX (Homo sapiens (Human), UniProt Q9UJM8)
Assay: In-vitro human glycolate oxidase (hGOX) assay (Amplex red/HRP fluorescence)
Assay type: biochemical
Details: 12.5 nM HAO1, 85 μM glycolate, 2.5% DMSO; read-out: IC50
Method: Biological Activity Assay: In-Vitro Human Glycolate Oxidase (hGOX) Assay
The in-vitro glycolate oxidase assay was performed using recombinant full-length human hydroxyacid oxidase 1 (HAO1), the equivalent of hGOX. […] Purified HAO1 was dissolved in assay buffer consisting of 10 mM NaCl, 110 mM KCl, 2 mM MgCl2, 50 mM HEPES (pH 7.4) and 0.01% Triton™ X-100.

Chain of recombinant full-length human hydroxyacid oxidase 1 (HAO1), the equivalent of hGOX (Q9UJM8 whole entry): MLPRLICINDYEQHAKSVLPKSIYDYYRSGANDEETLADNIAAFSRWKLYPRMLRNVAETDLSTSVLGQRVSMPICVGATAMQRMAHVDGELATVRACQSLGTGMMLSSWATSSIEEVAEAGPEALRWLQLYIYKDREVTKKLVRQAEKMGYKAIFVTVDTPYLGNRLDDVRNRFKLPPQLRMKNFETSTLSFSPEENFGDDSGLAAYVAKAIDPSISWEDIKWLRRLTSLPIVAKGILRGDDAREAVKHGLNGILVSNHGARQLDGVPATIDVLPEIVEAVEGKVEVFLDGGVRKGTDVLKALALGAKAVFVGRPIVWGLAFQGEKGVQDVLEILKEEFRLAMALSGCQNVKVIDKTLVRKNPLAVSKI

| Structure (SMILES) | IC50 |
| --- | --- |
| Cc1ccc(Oc2[nH]nnc2C(=O)O)cc1C [Example I-039, 5-(3,4-Dimethylphenoxy)-1H-1,2,3-triazole-4-carboxylic acid] | 56 nM |
| CCOC(=O)c1nn[nH]c1Nc1ccc(C)cc1 [Example I-291, ethyl 5-(p-tolylamino)-1H-1,2,3-triazole-4-carboxylate] | > 500000 nM |
| O=C(O)c1[nH]nnc1Sc1ccc(Cl)c(Cl)c1 [Example I-025, 5-((3,4-Dichlorophenyl)thio)-1H-1,2,3-triazole-4-carboxylic acid] | 43 nM |
| O=C(O)c1nn[nH]c1Oc1cccc(N2CCCC2)c1 [Example I-283, 5-(3-(Pyrrolidin-1-yl)phenoxy)-1H-1,2,3-triazole-4-carboxylic acid] | 172 nM |
| O=C(O)c1nn[nH]c1Oc1ccc(-c2cc(Cl)cc(Cl)c2)cc1 [Example I-300, 5-((3′,5′-Dichloro-[1,1′-biphenyl]-4-yl)oxy)-1H-1,2,3-triazole-4-carboxylic acid] | 33 nM |
| O=C(O)c1nn[nH]c1Oc1cccc(N2CCOCC2)c1 [Example I-282, 5-(3-Morpholinophenoxy)-1H-1,2,3-triazole-4-carboxylic acid] | 539 nM |
| O=C(O)c1nn[nH]c1Sc1ccccc1Cl [Example I-011, 5-((2-Chlorophenyl)thio)-1H-1,2,3-triazole-4-carboxylic acid] | 270 nM |
| COc1ccc(Nc2[nH]nnc2C(=O)O)cc1 [Example I-290, 5-((4-Methoxyphenyl)amino)-1H-1,2,3-triazole-4-carboxylic acid] | 6530 nM |
| CC(C)c1cccc(Oc2[nH]nnc2C(=O)O)c1 [Example I-278, 5-(3-Isopropylphenoxy)-1H-1,2,3-triazole-4-carboxylic acid] | 230 nM |
| Cc1cc(Oc2[nH]nnc2C(=O)O)ccc1F [Example I-306, 5-(4-Fluoro-3-methylphenoxy)-1H-1,2,3-triazole-4-carboxylic acid] | 61 nM |
| O=C(O)c1nn[nH]c1Oc1cccc(N2CCCCCC2)c1 [Example I-280, 5-(3-(Azepan-1-yl)phenoxy)-1H-1,2,3-triazole-4-carboxylic acid] | 222 nM |
| O=C(O)c1nn[nH]c1Sc1nc2ccccc2s1 [Example I-032, 5-(Benzo[d]thiazol-2-ylthio)-1H-1,2,3-triazole-4-carboxylic acid] | 4860 nM |
| O=C(O)c1nn[nH]c1Sc1ccc(Br)cc1 [Example I-007, 5-((4-Bromophenyl)thio)-1H-1,2,3-triazole-4-carboxylic acid] | 70 nM |
| CCOC(=O)c1nn[nH]c1Nc1ccc(OC)cc1 [Example I-289, Ethyl 5-((4-methoxyphenyl)amino)-1H-1,2,3-triazole-4-carboxylate] | > 500000 nM |
| Cc1ccccc1Sc1[nH]nnc1C(=O)O [Example I-010, 5-(o-Tolylthio)-1H-1,2,3-triazole-4-carboxylic acid] | 360 nM |
| O=C(O)c1nn[nH]c1Oc1cccc(N2CCCCC2)c1 [Example I-281, 5-(3-(Piperidin-1-yl)phenoxy)-1H-1,2,3-triazole-4-carboxylic acid] | 370 nM |
| O=C(O)c1nn[nH]c1OCc1ccc(Br)cc1 [Example I-085, 5-((4-Bromobenzyl)oxy)-1H-1,2,3-triazole-4-carboxylic acid] | > 10000 nM |
| C#Cc1ccc(Oc2[nH]nnc2C(=O)O)cc1 [Example I-297, 5-(4-Ethynylphenoxy)-1H-1,2,3-triazole-4-carboxylic acid] | 4 nM |
| O=C(O)c1nn[nH]c1Sc1ccccc1F [Example I-013, 5-((2-Fluorophenyl)thio)-1H-1,2,3-triazole-4-carboxylic acid] | 200 nM |
| Cc1ccc(Nc2[nH]nnc2C(=O)O)cc1 [Example I-292, 5-(p-Tolylamino)-1H-1,2,3-triazole-4-carboxylic acid] | 3760 nM |
| O=C(O)c1nn[nH]c1Oc1cccc(-c2ccc3c(c2)OCO3)c1 [Example I-305, 5-(3-(Benzo[d][1,3]dioxol-5-yl)phenoxy)-1H-1,2,3-triazole-4-carboxylic acid] | 2 nM |
| Cc1ccc(Sc2[nH]nnc2C(=O)O)c(C)c1 [Example I-009, 5-((2,4-Dimethylphenyl)thio)-1H-1,2,3-triazole-4-carboxylic acid] | 230 nM |
| CC(C)Cc1cccc(Oc2[nH]nnc2C(=O)O)c1 [Example I-296, 5-(3-Isobutylphenoxy)-1H-1,2,3-triazole-4-carboxylic acid] | 76 nM |

| Structure (SMILES) | IC50 |
| --- | --- |
| CCc1ccc(Oc2[nH]nnc2C(=O)O)cc1 [Example I-298, 5-(4-Ethylphenoxy)-1H-1,2,3-triazole-4-carboxylic acid] | 34 nM |
| Cc1ccc(Sc2[nH]nnc2C(=O)O)cc1 [Example I-003, 5-(p-Tolylthio)-1H-1,2,3-triazole-4-carboxylic acid] | 160 nM |
| CC(C)c1ccc(Oc2[nH]nnc2C(=O)O)cc1 [Example I-274, 5-(4-Isopropylphenoxy)-1H-1,2,3-triazole-4-carboxylic acid] | 112 nM |
| CCOC(=O)c1nn[nH]c1Sc1ccccc1Cl [Example I-012, Ethyl 5-((2-chlorophenyl)thio)-1H-1,2,3-triazole-4-carboxylate] | 251000 nM |
| CCOC(=O)c1nn[nH]c1Sc1ccccc1F [Example I-014, Ethyl 5-((2-fluorophenyl)thio)-1H-1,2,3-triazole-4-carboxylate] | 430000 nM |
| COc1ccc(Sc2[nH]nnc2C(=O)O)cc1 [Example I-004, 5-((4-Methoxyphenyl)thio)-1H-1,2,3-triazole-4-carboxylic acid] | 140 nM |
| O=C(O)c1nn[nH]c1Oc1ccc(-c2ccc(OC(F)(F)F)c(F)c2)cc1 [Example I-310, 5-((3′-Fluoro-4′-(trifluoromethoxy)-[1,1′-biphenyl]-4-yl)oxy)-1H-1,2,3-triazole-4-carboxylic acid] | 5 nM |
| COc1cc(OC)cc(-c2ccc(Oc3[nH]nnc3C(=O)O)cc2)c1 [Example I-301, 5-((3′,5′-Dimethoxy-[1,1′-biphenyl]-4-yl)oxy)-1H-1,2,3-triazole-4-carboxylic acid] | 1080 nM |
| CCc1cccc(Oc2[nH]nnc2C(=O)O)c1 [Example I-295, 5-(3-Ethylphenoxy)-1H-1,2,3-triazole-4-carboxylic acid] | 79 nM |
| O=C(O)c1[nH]nnc1Oc1ccc(F)c(F)c1 [Example I-307, 5-(3,4-Difluorophenoxy)-1H-1,2,3-triazole-4-carboxylic acid] | 88 nM |
| COc1ccccc1Sc1[nH]nnc1C(=O)O [Example I-006, 5-((2-Methoxyphenyl)thio)-1H-1,2,3-triazole-4-carboxylic acid] | 2310 nM |
| COc1ccc(Oc2[nH]nnc2C(=O)O)cc1 [Example I-035, 5-(4-Methoxyphenoxy)-1H-1,2,3-triazole-4-carboxylic acid] | 260 nM |
| COc1cc(OC)cc(-c2cccc(Oc3[nH]nnc3C(=O)O)c2)c1 [Example I-303, 5-((3′,5′-Dimethoxy-[1,1′-biphenyl]-3-yl)oxy)-1H-1,2,3-triazole-4-carboxylic acid] | 169 nM |
| O=C(O)c1nn[nH]c1Oc1ccccc1 [Example I-057, 5-Phenoxy-1H-1,2,3-triazole-4-carboxylic acid] | 360 nM |
| CCOC(=O)c1nn[nH]c1Sc1ccc(OC)cc1 [Example I-005, Ethyl 5-((4-Methoxyphenyl)thio)-1H-1,2,3-triazole-4-carboxylate] | > 500000 nM |
| O=C(O)c1nn[nH]c1Oc1ccc(Cl)c(F)c1 [Example I-308, 5-(4-Chloro-3-fluorophenoxy)-1H-1,2,3-triazole-4-carboxylic acid] | 34 nM |
| O=C(O)c1nn[nH]c1Sc1ccc(C(F)(F)F)cc1 [Example I-016, 5-((4-(Trifluoromethyl)phenyl)thio)-1H-1,2,3-triazole-4-carboxylic acid] | 820 nM |
| C=Cc1cccc(Oc2[nH]nnc2C(=O)O)c1 [Example I-284, 5-(3-Vinylphenoxy)-1H-1,2,3-triazole-4-carboxylic acid] | 89 nM |
| O=C(O)c1nn[nH]c1Oc1cccc(-c2ccc(OC(F)(F)F)c(F)c2)c1 [Example I-311, 5-((3′-Fluoro-4′-(trifluoromethoxy)-[1,1′-biphenyl]-3-yl)oxy)-1H-1,2,3-triazole-4-carboxylic acid] | 27 nM |
| O=C(O)c1nn[nH]c1Sc1cccc(F)c1 [Example I-015, 5-((3-Fluorophenyl)thio)-1H-1,2,3-triazole-4-carboxylic acid] | 130 nM |
| O=C(O)c1nn[nH]c1Oc1ccc(F)c(Cl)c1 [Example I-309, 5-(3-Chloro-4-fluorophenoxy)-1H-1,2,3-triazole-4-carboxylic acid] | 27 nM |
| O=C(O)c1nn[nH]c1Oc1cccc(C2CC2)c1 [Example I-293, 5-(3-Cyclopropylphenoxy)-1H-1,2,3-triazole-4-carboxylic acid] | 74 nM |
| CCOC(=O)c1nn[nH]c1Sc1ccc(Br)cc1 [Example I-008, Ethyl 5-((4-bromophenyl)thio)-1H-1,2,3-triazole-4-carboxylate] | > 500000 nM |
